In the supplement of paper PMC10307832:

Legend:
Assay in all cases: relative viability (nuclei count vs DMSO), 5 days (fraction); higher = more cells survive
[1] = compound: COc1cc2nccc(Oc3ccc(NC(=O)C4(C(=O)Nc5ccc(F)cc5)CC4)cc3)c2cc1OC [Cabozantinib] + Nc1ncn([C@H]2C[C@H](O)[C@@H](CO)O2)c(=O)n1 [Decitabine] (partner 2 µM)
Outline: (§1)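 Five library-drug doses in √10 steps were combined with a fixed anchor-drug dose, or a single drug was given alone, by pin tool to lung cancer cell lines in 1536-well plates the day after seeding. Nuclei were stained and counted after 5 days. Relative viability is the nuclei count in treated wells over that in vehicle wells, taken as the median of duplicate plates.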

Zosuquidar + Palbociclib = compound: O[C@@H](COc1cccc2ncccc12)CN1CCN([C@@H]2c3ccccc3[C@@H]3[C@H](c4ccccc42)C3(F)F)CC1 [Zosuquidar] + CC(=O)c1c(C)c2cnc(Nc3ccc(N4CCNCC4)cn3)nc2n(C2CCCC2)c1=O [Palbociclib] (partner 0.5 µM)
Outline: as §1

Zosuquidar + Vorinostat = compound: O[C@@H](COc1cccc2ncccc12)CN1CCN([C@@H]2c3ccccc3[C@@H]3[C@H](c4ccccc42)C3(F)F)CC1 [Zosuquidar] + O=C(CCCCCCC(=O)Nc1ccccc1)NO [Vorinostat] (partner 1 µM)
Outline: as §1

Cabozantinib + Alpelisib = compound: COc1cc2nccc(Oc3ccc(NC(=O)C4(C(=O)Nc5ccc(F)cc5)CC4)cc3)c2cc1OC [Cabozantinib] + Cc1nc(NC(=O)N2CCC[C@H]2C(N)=O)sc1-c1ccnc(C(C)(C)C(F)(F)F)c1 [Alpelisib] (partner 2 µM)
Outline: as §1

Cell Line | relative viability ([1]; first compound 0.02 µM) | relative viability ([1]; first compound 0.06325 µM) | relative viability ([1]; first compound 0.6325 µM) | relative viability ([1]; first compound 2 µM) | relative viability (Zosuquidar + Palbociclib; first compound 0.01 µM) | relative viability (Zosuquidar + Palbociclib; first compound 0.3162 µM) | relative viability (Zosuquidar + Palbociclib; first compound 1 µM) | relative viability (Zosuquidar + Vorinostat; first compound 0.01 µM) | relative viability (Zosuquidar + Vorinostat; first compound 0.3162 µM) | relative viability (Zosuquidar + Vorinostat; first compound 1 µM) | relative viability (Cabozantinib + Alpelisib; first compound 0.02 µM) | relative viability (Cabozantinib + Alpelisib; first compound 0.06325 µM) | relative viability (Cabozantinib + Alpelisib; first compound 0.2 µM) | relative viability (Cabozantinib + Alpelisib; first compound 0.6325 µM) | relative viability (Cabozantinib + Alpelisib; first compound 2 µM) | relative viability ([1]; first compound 0.2 µM) | relative viability (Zosuquidar + Palbociclib; first compound 0.03162 µM) | relative viability (Zosuquidar + Palbociclib; first compound 0.1 µM) | relative viability (Zosuquidar + Vorinostat; first compound 0.03162 µM) | relative viability (Zosuquidar + Vorinostat; first compound 0.1 µM)
NCI-H1793 | 0.4 | 0.555 | 0.469 | 0.489 | 0.271 | 0.333 | 0.306 | 0.745 | 1.06 | 0.629 | 0.845 | 0.864 | 0.561 | 0.759 | 0.637 | – | – | – | – | –
NCI-H2023 | 0.261 | 0.235 | 0.234 | 0.24 | 0.364 | 0.37 | 0.313 | 0.529 | 0.732 | 0.541 | 0.613 | 0.591 | 0.559 | 0.514 | 0.335 | 0.239 | 0.36 | 0.418 | 0.837 | 0.596
NCI-H1666 | 0.649 | 0.754 | 0.711 | 0.752 | 0.56 | 0.757 | 0.648 | 1 | 1.04 | 1.03 | 1.02 | 1.09 | 0.924 | 0.972 | 1.03 | 0.712 | 0.715 | 0.668 | 0.868 | 1.01
HARA | 0.556 | 0.653 | 0.812 | 0.786 | 0.324 | 0.245 | 0.299 | 0.657 | 0.556 | 0.459 | 0.878 | 1.05 | 0.639 | 0.788 | 0.84 | – | 0.18 | 0.304 | 0.526 | 0.606
NCI-H358 | 0.226 | 0.224 | 0.218 | 0.233 | 0.119 | 0.16 | 0.136 | 0.662 | 0.646 | 0.639 | 0.912 | 1.13 | 0.852 | 0.803 | 0.824 | 0.214 | 0.148 | 0.132 | 0.8 | 0.634
NCI-H3122 | 0.394 | 0.413 | 0.411 | 0.467 | 0.177 | 0.213 | 0.197 | 0.984 | 1.07 | 1.07 | 0.875 | 0.778 | 0.731 | 0.97 | 0.956 | 0.422 | 0.195 | 0.18 | 1.03 | 0.894
201T | 0.874 | 0.945 | 0.836 | 0.826 | 0.349 | 0.354 | 0.337 | 0.886 | 0.997 | 0.962 | 1.03 | 1.05 | 0.981 | 0.99 | 0.958 | 0.839 | 0.343 | 0.365 | 0.942 | 0.799
SK-LU-1 | 0.583 | 0.698 | 0.631 | 0.627 | 0.396 | 0.432 | 0.396 | 0.828 | 0.926 | 0.761 | – | 1.29 | 0.983 | 0.718 | 0.705 | 0.668 | 0.381 | 0.408 | 0.829 | 0.839
NCI-H1734 | 0.545 | 0.53 | 0.508 | 0.53 | 0.337 | 0.306 | 0.344 | 0.764 | 0.839 | 0.887 | 0.718 | 0.681 | 0.717 | 0.654 | 0.638 | 0.523 | 0.383 | 0.404 | 0.832 | 0.883
NCI-H1651 | 0.465 | 0.743 | 0.616 | 0.599 | 0.509 | 0.508 | 0.511 | 0.576 | 0.607 | 0.501 | 0.883 | 0.998 | 0.97 | 0.952 | 0.728 | 0.565 | 0.537 | 0.489 | 0.604 | 0.471
PC-3 [JPC-3] | 0.782 | 0.886 | 0.872 | 0.797 | 0.554 | 0.507 | 0.473 | 0.817 | 0.916 | 0.416 | 1.02 | 1.16 | – | 1.06 | 1.04 | – | 0.52 | 0.542 | 0.91 | 0.589
NCI-H1915 | 0.262 | 0.264 | 0.248 | 0.256 | 0.501 | 0.635 | 0.507 | 0.536 | 0.57 | 0.549 | 1.1 | 1.08 | 1.03 | 1.08 | 1.07 | 0.253 | 0.542 | 0.501 | 0.512 | 0.457
COR-L23 | 0.449 | 0.371 | 0.441 | 0.419 | 0.295 | 0.354 | 0.314 | 0.493 | 0.517 | 0.509 | 0.717 | 0.883 | 0.855 | 0.699 | 0.59 | 0.445 | 0.328 | 0.301 | 0.515 | 0.472
HOP-62 | 0.241 | 0.214 | 0.225 | 0.181 | 0.444 | 0.426 | 0.401 | 0.528 | 0.836 | 0.593 | 0.981 | 1.02 | 1.43 | 0.807 | 1.08 | 0.22 | 0.535 | 0.444 | 0.624 | 0.585
NCI-H1975 | 0.406 | 0.399 | 0.418 | 0.327 | 0.587 | 0.714 | 0.531 | 0.745 | 0.746 | 0.751 | 0.675 | 0.807 | 0.669 | 0.604 | 0.623 | 0.412 | 0.475 | 0.582 | 0.681 | 0.75
BEN | 0.63 | 0.815 | 0.733 | 0.566 | 0.467 | 0.455 | 0.489 | 0.548 | 0.662 | 0.553 | 0.992 | 1.11 | 1.01 | 1.06 | 0.776 | 0.7 | 0.491 | 0.456 | 0.579 | 0.574
EMC-BAC-2 | 0.998 | 0.963 | 0.994 | 1.13 | 0.508 | 0.577 | 0.521 | 0.457 | 0.528 | 0.258 | 0.815 | 0.804 | 0.744 | 0.739 | 0.737 | 1.04 | 0.451 | 0.544 | 0.438 | 0.489
NCI-H441 | 0.204 | 0.24 | 0.273 | 0.231 | 0.239 | 0.281 | 0.242 | 0.666 | 0.867 | 0.962 | – | 0.857 | 0.663 | 0.815 | 0.783 | 0.241 | 0.223 | 0.216 | 0.97 | 0.728
NCI-H727 | 0.595 | 0.976 | 0.865 | 0.907 | 0.596 | 0.599 | 0.668 | 1.12 | 1.11 | 1.29 | 0.505 | 0.6 | 0.593 | 0.529 | 0.594 | 0.881 | 0.607 | – | 1.32 | –
LU99A | 0.843 | 1.01 | 0.787 | 0.882 | 0.342 | 0.459 | 0.353 | 0.476 | 0.618 | 0.544 | 0.469 | 0.495 | 0.429 | 0.502 | 0.543 | 0.854 | 0.37 | 0.473 | 0.423 | 0.463
NCI-H2405 | 0.725 | 0.788 | 0.752 | 0.764 | 0.565 | 0.539 | 0.489 | 1.07 | 1.05 | 0.31 | – | 0.858 | 0.838 | 0.744 | 0.67 | 0.77 | 0.528 | 0.555 | 0.963 | 1.01
NCI-H2009 | 0.305 | 0.384 | 0.394 | 0.405 | 0.204 | 0.251 | 0.211 | 0.688 | 0.773 | 0.664 | 1.25 | 1.21 | 1.16 | 1.14 | 1.21 | 0.447 | 0.183 | 0.154 | 0.658 | 0.654
HCC-827 | 0.28 | 0.362 | 0.36 | 0.309 | 0.503 | 0.498 | 0.491 | 0.761 | 0.849 | 0.999 | 0.977 | 1.04 | – | 0.925 | 0.9 | – | 0.497 | 0.501 | 0.786 | 0.714
NCI-H838 | 0.485 | 0.479 | 0.469 | 0.438 | 0.217 | 0.225 | 0.227 | 0.744 | 0.755 | 0.806 | 1.06 | 1.08 | 0.989 | 0.933 | 0.886 | 0.435 | 0.223 | 0.218 | 0.793 | 0.791
RERF-LC-KJ | 0.717 | 0.735 | 0.666 | 0.746 | 1.1 | 1.1 | 1.14 | 0.728 | 0.772 | 0.683 | 0.864 | 0.877 | 0.733 | 0.847 | 0.675 | 0.649 | 1.07 | 1.06 | 0.707 | 0.694
NCI-H2347 | 0.66 | 0.667 | 0.609 | 0.516 | 0.403 | 0.413 | 0.43 | 0.531 | 0.615 | 0.56 | 1.2 | 1.15 | 1.01 | 0.985 | 0.668 | 0.601 | 0.466 | 0.432 | 0.713 | 0.499
PC-14 | 0.237 | 0.203 | 0.219 | 0.249 | 0.506 | 0.509 | 0.52 | 0.826 | 0.831 | 0.761 | 1 | 1.03 | – | 0.901 | 0.868 | – | 0.475 | 0.635 | 0.673 | 0.721
